{"source": "patent US20200270225A1", "about": "“Chiral Diacylhydrazine Ligands for Modulating the Expression of Exogenous Genes via an Ecdysone Receptor Complex” (Intrexon Corporation, priority 2007, published 2020)", "key": {"[1]": {"system": "IL-12 transgene in transduced AdDCs", "experiment": "In vitro IL-12 transgene induction by transduced AdDCs from healthy volunteers", "assay_type": "cell-based, human", "settings": "observed in 2 out of the 3 AdDC preparations", "description": "Immature DCs are harvested, counted and tested for viability. Approximately 6-7×10^7 DCs are transduced with the adenoviral vector at the optimal multiplicity of infection (the optimal MOI, between 500 and 1000, to be finalized) for the optimal viral adsorption time (between 2 h and 4 h, to be finalized). After transduction, the cells are washed repeatedly to remove any unadsorbed viral particles. Aliquots are set aside for sterility, endotoxin, mycoplasma, DC Phenotype and IL-12 transgene induction assays. The target dose of 5×10^7 cells is held at 4° C. in saline until release testing is complete.\nThe in vitro testing of the IL-12 transgene induction by the transduced AdDCs takes a minimum of two days for the results to be available and therefore IL-12 production in response to (R)-2-ethyl-3-methoxy-benzoic acid N′-(1-tert-butyl-butyl)-N′-(3,5-dimethyl-benzoyl)-hydrazide will not be a release criterion for the intratumoral injection of the AdDCs. […] Therefore, the in vitro IL-12 induction results are used for analysis of the treatment outcome. As such, the transduced AdDCs are used for injection after viral transduction and washing. Any left-over untransduced and transduced DCs are cryopreserved for future analysis as necessary."}, "[2]": {"experiment": "Solubility in aqueous polysorbate 80, Assay 4", "assay_type": "physicochemical", "description": "Equilibrium solubility in formulation excipients and biological fluids influences drug bioavailability, although kinetics of dissolution may also be a limiting factor in determining bioavailability. The solubilities of R enantiomer and racemate of 2-ethyl-3-methoxy-benzoic acid N′-(1-tert-butyl-butyl)-N′-(3,5-dimethyl-benzoyl)-hydrazide were established quantitatively in aqueous preparations of the pharmaceutical surfactant polysorbate 80 and then the intrinsic dissolution rate of compacted test substance was observed. Mixtures of racemate and R enantiomer in 0.5%, 1%, and 1.5% polysorbate 80 solutions were prepared by addition of 20+/−1 mg test substance in a 2 mL Eppendorf vial, followed by 500 mg polysorbate solution. The mixture was bead-beaten for 120 second, shaken at 25° C. for 16 to 24 hours, and filtered using a Spin-X (0.2 μM). The pH of the filtrate was recorded. The concentration of test substance in the filtrate was measured by quantitative HPLC analysis (FIG. 12). The R enantiomer is 2-3× more soluble in 1.0 and 1.5% polysorbate 80 solutions."}}}
{"smiles": "CCC[C@@H](N(NC(=O)c1cccc(OC)c1CC)C(=O)c1cc(C)cc(C)c1)C(C)(C)C", "note": "[Example 1, (R)-3,5-Dimethyl-benzoic Acid N-(1-tert-butyl-butyl)-N′-(2-ethyl-3-methoxy-benzoyl)-hydrazide]", "values": [{"measurement": "induced IL-12 expression level", "setting": "[1]", "result": 80, "unit": "ng/million cells/24 h"}, {"measurement": "solubility relative to racemate", "setting": "[2]; 1.0 and 1.5% polysorbate 80 solutions, 25° C.", "result": "2-3 ×"}, {"measurement": "solubility of racemate and R enantiomer compared", "setting": "[2]; deionized water and 0.5% polysorbate 80", "result": "comparable"}]}
